Assay results taken from patent US20150148234A1, “HERBICIDE-RESISTANT SUNFLOWER PLANTS WITH MULTIPLE HERBICIDE RESISTANT ALLELES OF AHASL1 AND METHODS OF USE” (NIDERA S.A., priority 2013, published 2015).

What was measured:
[1] = test system: F2 population from the cross GM40 (A122T)/HA425 (A205V); assay: imazapyr challenge of segregating population (Example 1); assay type: in vivo, sunflower; details: 320 g a.i. ha-1; eighty F2 plants
Method: (§1) To determine the phenotypic interactions of the resistance gene A122T and the Imr1 gene (A205V) already described in IMI-R sunflowers (HA425), F1, F2 and BC1F1 populations from the cross GM40 (A122T)/HA425 (A205V) were evaluated at two herbicide applications rates (80 and 320 g. a. i. Ha^−1 of imazapyr). […] When F2 and BC1F1 populations were scored at the higher herbicide rate (320 g. a. i. Ha-1), which discriminates both parents, segregation for susceptibility was observed. Only two phenotypic classes could be detected, a resistant class with plants without any injury or slight symptoms and a susceptible phenotype that was killed like the control line HA425.
The AHASL1 gene in sunflower presents a simple sequence repeat (SSR) polymorphism which discriminates lines carrying the Imr1 allele from any other sunflower genotype (Kolkman et al. (2004) Theor. Appl. Genet. 109: 1147-1159). […] This length variant polymorphism detected in GM40 and HA425 was exploited to investigate the segregation in the F2 and BC1F1 populations derived from crossing both lines. […] The cosegregation of herbicide resistance phenotypes and AHASL1 haplotypes was further assessed on 50 BC1F1 progeny segregating for resistance. […]

[2] = test system: control line HA425 (A205V); assay: as above; assay type: in vivo, sunflower; details: 320 g a.i. ha-1
Method: as §1

[3] = test system: sunflower hybrid H2 (L3*L4), 122/122; assay: field trial, imazapyr at V8 or R1 stage (Example 4); details: H2 122/122
[4] = test system: sunflower hybrid H3 (L3*L2), 122/205; assay: as above; details: H3 122/205
[5] = test system: sunflower hybrid H5 (L3 x WT), 122/Wild type; assay: as above; details: H5 122/Wild type
[6] = test system: sunflower hybrid H6 (L1 * WT), 205/wild type; assay: as above; details: H6 205/wild type
[7] = test system: lines carrying at least one allele A122T (A122T/A122T, A122T/A205V, A122/WT); assay: as above; details: 160 g ai/ha applied at R1; 14 DAT
[8] = test system: hybrids carrying the A205V mutation event (A205V/A205V, A205V/WT); assay: as above; details: 160 g ai/ha applied at R1; 14 DAT
[9] = test system: sunflower line BTI-OL-2201; assay: tolerance to imidazolinones, greenhouse (Example 8); details: 160 gr/ha at V4, fourteen days after treatment
[10] = test system: sunflower line VB141 (high oleic); assay: as above
[11] = test system: sunflower line HA445 (high oleic); assay: as above
[12] = test system: sunflower line GM40 (A122T); assay: as above; details: 160 gr/ha at V4, fourteen days after treatment
[13] = test system: sunflower line B770 (conventional); assay: as above
[14] = test system: sunflower line BTK112 (conventional); assay: as above
[15] = 160 g ai/ha applied at R1, 14 DAT
[16] = 160 g ai/ha applied at R1, 21 DAT
[17] = 160 g ai/ha applied at V8, 14 DAT
[18] = 160 g ai/ha applied at V8, 21 DAT
[19] = 160 gr/ha at V4, fourteen days after treatment

`CC(C)C1(C)N=C(c2ncccc2C(=O)O)NC1=O` (stereo not shown) [imazapyr] was tested, and the “plants killed by the herbicide (S)” value [1] was 22 plants, the “plants with no symptoms or a slight injury (R)” value [1] was 58 plants and the “outcome of herbicide application” value [2] was “killed”. For the same molecule, the “Mean Phytotoxicity Index (0-50)” value [3, 15] was 2.3, the “Mean Phytotoxicity Index (0-50)” value [3, 16] was 1.7 and the “Mean Phytotoxicity Index (0-50)” value [3, 17] was 5. The “Mean Phytotoxicity Index (0-50)” value [3, 18] was 1, the “Mean Phytotoxicity Index (0-50)” value [4, 15] was 4.3 and the “Mean Phytotoxicity Index (0-50)” value [4, 16] was 0.7. For the same molecule, the “Mean Phytotoxicity Index (0-50)” value [4, 17] was 3, the “Mean Phytotoxicity Index (0-50)” value [4, 18] was 0 and the “Mean Phytotoxicity Index (0-50)” value [5, 15] was 11.7. The “Mean Phytotoxicity Index (0-50)” value [5, 16] was 23.3, the “Mean Phytotoxicity Index (0-50)” value [5, 17] was 15 and the “Mean Phytotoxicity Index (0-50)” value [5, 18] was 5. The “Mean Phytotoxicity Index (0-50)” value [6, 15] was 40, the “Mean Phytotoxicity Index (0-50)” value [6, 16] was 48.3 and the “Mean Phytotoxicity Index (0-50)” value [6, 17] was 5. For the same molecule, the “Mean Phytotoxicity Index (0-50)” value [6, 18] was 5, the “PI (0-50), group with chlorosis symptoms only” value [7] was “less than 11.7” and the “PI (0-50), group with chlorosis, stunting and deformation” value [8] was “greater than 35”. The “Mean Phytotoxicity Index (0-9)” value [9] was 0.2, the “outcome of the herbicide treatment” value ([10]; 160 gr/ha at V4) was “killed” and the “Mean Phytotoxicity Index (0-9)” value [10, 19] was 8.5. For the same molecule, the “outcome of the herbicide treatment” value ([11]; 160 gr/ha at V4) was “killed”, the “Mean Phytotoxicity Index (0-9)” value [11, 19] was 8.8 and the “Mean Phytotoxicity Index (0-9)” value [12] was 0.2. For the same molecule, the “outcome of the herbicide treatment” value ([13]; 160 gr/ha at V4) was “killed”, the “Mean Phytotoxicity Index (0-9)” value [13, 19] was 8.7 and the “outcome of the herbicide treatment” value ([14]; 160 gr/ha at V4) was “killed”. The “Mean Phytotoxicity Index (0-9)” value [14, 19] was 9.
